According to the kinase profiling compilation of Christmann-Franck et al. (2016):

Assays:
Experiment in all cases: KINOMEscan competition binding
Details in all cases: compound 10.0 µM
CDK3 (human) = CDK3 (human) (UniProt Q00526)
TGFBR1 (human) = TGFBR1 (human) (UniProt P36897)
DAPK3 (human) = DAPK3 (human) (UniProt O43293)
[1] = system: FLT3 (human), P36888 [D835Y]
OXSR1 (human) = OXSR1 (human) (UniProt O95747)
SNRK (human) = SNRK (human) (UniProt Q9NRH2)
CDK17 (human) = CDK17 (human) (UniProt Q00537)
Chain of CDK17 (human) (Q00537 whole entry, looked up): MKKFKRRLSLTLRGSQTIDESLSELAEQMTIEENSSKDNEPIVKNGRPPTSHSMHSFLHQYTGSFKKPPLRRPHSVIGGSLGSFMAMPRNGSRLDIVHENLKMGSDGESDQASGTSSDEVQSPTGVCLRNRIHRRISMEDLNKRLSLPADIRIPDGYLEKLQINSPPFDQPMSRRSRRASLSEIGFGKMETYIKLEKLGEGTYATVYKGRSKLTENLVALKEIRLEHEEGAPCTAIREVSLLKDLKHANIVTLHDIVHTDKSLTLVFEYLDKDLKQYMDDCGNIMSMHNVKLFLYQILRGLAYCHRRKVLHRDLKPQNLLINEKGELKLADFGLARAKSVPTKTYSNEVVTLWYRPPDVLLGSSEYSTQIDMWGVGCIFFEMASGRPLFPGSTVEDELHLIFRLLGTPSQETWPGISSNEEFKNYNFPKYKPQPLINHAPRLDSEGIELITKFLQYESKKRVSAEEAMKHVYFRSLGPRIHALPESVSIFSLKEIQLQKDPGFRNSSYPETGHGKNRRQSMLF

[2] = system: EGFR (human), P00533 [G719C]
CAMK2G (human) = CAMK2G (human) (UniProt Q13555)
Chain of CAMK2G (human) (Q13555 whole entry, looked up): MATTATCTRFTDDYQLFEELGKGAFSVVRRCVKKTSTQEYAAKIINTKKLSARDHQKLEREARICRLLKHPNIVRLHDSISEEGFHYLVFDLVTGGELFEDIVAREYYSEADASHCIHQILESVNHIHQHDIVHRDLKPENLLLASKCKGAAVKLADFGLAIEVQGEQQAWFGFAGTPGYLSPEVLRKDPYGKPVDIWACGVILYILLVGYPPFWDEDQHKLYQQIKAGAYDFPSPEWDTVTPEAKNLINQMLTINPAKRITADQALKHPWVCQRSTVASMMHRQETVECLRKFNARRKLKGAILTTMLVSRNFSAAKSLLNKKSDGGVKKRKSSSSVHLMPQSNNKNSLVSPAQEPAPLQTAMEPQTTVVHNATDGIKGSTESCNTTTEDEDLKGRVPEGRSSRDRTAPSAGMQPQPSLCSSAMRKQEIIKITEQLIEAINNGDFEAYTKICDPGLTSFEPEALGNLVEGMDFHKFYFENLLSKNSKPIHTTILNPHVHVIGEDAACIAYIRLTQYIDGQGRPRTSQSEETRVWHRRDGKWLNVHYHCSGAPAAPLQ

SRPK1 (human) = SRPK1 (human) (UniProt Q96SB4)
RIPK4 (human) = RIPK4 (human) (UniProt P57078)
Chain of RIPK4 (human) (P57078 whole entry, looked up): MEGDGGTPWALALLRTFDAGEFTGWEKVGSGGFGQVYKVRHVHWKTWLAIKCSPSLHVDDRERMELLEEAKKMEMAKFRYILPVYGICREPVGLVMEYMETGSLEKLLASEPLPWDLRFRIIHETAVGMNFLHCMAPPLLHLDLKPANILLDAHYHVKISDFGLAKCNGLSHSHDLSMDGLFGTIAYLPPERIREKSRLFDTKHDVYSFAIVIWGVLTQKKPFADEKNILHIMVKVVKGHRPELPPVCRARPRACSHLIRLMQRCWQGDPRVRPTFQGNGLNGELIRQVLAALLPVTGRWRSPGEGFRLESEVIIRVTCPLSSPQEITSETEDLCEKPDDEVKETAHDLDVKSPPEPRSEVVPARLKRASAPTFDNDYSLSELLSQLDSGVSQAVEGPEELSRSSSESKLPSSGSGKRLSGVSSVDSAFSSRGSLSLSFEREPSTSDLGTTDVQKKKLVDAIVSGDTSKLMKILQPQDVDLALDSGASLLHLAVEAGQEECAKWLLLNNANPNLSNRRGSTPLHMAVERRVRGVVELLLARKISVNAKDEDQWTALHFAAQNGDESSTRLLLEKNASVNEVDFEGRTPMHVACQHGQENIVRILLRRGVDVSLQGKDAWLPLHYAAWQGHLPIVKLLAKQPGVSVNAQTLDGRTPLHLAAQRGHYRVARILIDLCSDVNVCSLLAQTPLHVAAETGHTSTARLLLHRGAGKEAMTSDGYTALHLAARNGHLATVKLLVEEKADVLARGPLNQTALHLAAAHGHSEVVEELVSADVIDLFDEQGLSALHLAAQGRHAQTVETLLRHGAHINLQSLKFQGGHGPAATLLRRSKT

NEK6 (human) = NEK6 (human) (UniProt Q9HC98)
PRKCE (human) = PRKCE (human) (UniProt Q02156)
SIK2 (human) = SIK2 (human) (UniProt Q9H0K1)
RET (human) = RET (human) (UniProt P07949)
TXK (human) = TXK (human) (UniProt P42681)
MARK2 (human) = MARK2 (human) (UniProt Q7KZI7)
ABL2 (human) = ABL2 (human) (UniProt P42684)
FGFR3 (human) = FGFR3 (human) (UniProt P22607)
Chain of FGFR3 (human) (P22607 whole entry, looked up): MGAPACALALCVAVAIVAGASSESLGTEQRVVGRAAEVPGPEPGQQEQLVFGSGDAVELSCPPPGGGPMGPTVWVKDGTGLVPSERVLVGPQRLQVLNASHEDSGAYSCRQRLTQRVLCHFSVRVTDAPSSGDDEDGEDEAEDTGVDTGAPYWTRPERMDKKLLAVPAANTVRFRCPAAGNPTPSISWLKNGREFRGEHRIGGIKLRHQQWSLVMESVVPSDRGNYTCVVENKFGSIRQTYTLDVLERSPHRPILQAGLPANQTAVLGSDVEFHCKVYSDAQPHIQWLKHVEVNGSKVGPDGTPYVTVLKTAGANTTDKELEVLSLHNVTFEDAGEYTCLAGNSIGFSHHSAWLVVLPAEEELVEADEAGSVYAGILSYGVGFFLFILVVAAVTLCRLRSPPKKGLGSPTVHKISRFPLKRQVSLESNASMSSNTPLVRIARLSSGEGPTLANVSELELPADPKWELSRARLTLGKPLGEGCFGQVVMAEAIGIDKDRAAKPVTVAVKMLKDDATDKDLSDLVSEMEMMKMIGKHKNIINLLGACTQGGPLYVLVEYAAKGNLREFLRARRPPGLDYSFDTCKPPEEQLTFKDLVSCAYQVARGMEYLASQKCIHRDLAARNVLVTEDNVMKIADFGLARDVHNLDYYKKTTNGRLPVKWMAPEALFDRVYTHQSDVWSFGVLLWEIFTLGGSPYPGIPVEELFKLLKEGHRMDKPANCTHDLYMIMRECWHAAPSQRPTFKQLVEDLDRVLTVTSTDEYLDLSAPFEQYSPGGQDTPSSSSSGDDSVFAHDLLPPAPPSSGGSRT

NEK4 (human) = NEK4 (human) (UniProt P51957)
Chain of NEK4 (human) (P51957 whole entry, looked up): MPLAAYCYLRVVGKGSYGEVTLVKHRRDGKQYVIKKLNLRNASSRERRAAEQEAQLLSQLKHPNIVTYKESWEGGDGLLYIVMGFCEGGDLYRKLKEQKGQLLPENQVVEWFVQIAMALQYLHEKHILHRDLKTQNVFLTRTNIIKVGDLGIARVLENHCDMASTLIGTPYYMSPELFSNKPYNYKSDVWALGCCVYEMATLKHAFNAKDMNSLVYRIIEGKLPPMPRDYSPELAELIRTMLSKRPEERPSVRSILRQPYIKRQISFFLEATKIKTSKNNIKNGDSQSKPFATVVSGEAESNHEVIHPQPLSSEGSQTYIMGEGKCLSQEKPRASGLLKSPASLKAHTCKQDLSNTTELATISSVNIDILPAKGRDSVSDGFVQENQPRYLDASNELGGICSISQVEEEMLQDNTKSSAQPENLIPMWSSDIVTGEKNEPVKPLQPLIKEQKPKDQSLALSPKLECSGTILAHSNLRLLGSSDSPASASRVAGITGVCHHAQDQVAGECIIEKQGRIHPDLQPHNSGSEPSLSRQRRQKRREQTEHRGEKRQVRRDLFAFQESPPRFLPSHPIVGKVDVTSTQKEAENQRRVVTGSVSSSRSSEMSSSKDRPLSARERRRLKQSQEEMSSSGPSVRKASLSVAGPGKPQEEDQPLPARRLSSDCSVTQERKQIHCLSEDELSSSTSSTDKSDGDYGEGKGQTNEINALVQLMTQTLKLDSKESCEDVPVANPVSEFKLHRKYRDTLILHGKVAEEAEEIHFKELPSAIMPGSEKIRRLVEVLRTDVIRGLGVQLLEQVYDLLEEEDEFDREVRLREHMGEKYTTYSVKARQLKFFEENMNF

PRKCH (human) = PRKCH (human) (UniProt P24723)
Chain of PRKCH (human) (P24723 whole entry, looked up): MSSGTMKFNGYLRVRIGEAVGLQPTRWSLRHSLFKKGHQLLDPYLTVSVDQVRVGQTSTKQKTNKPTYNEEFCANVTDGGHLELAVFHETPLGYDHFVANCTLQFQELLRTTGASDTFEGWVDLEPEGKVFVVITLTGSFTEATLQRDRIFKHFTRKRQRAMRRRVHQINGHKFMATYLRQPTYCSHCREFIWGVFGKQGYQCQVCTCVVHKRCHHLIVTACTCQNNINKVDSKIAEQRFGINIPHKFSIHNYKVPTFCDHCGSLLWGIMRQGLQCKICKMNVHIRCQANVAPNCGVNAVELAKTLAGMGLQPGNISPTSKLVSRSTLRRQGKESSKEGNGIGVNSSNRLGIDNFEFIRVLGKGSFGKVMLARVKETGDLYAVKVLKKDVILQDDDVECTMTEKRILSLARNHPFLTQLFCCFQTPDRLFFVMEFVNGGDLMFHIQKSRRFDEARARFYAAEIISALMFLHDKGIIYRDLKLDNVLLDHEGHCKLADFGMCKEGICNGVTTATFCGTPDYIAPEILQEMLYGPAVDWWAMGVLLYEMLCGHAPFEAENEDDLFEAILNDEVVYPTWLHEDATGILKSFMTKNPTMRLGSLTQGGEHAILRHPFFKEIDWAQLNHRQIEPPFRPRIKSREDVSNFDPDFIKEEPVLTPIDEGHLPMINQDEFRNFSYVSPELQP

BMPR1A (human) = BMPR1A (human) (UniProt P36894)
SLK (human) = SLK (human) (UniProt Q9H2G2)
PKMYT1 (human) = PKMYT1 (human) (UniProt Q99640)
STK17A (human) = STK17A (human) (UniProt Q9UEE5)
IKBKB (human) = IKBKB (human) (UniProt O14920)
PIK3CD (human) = PIK3CD (human) (UniProt O00329)
MAP3K5 (human) = MAP3K5 (human) (UniProt Q99683)
EPHB1 (human) = EPHB1 (human) (UniProt P54762)
CAMK1D (human) = CAMK1D (human) (UniProt Q8IU85)
MERTK (human) = MERTK (human) (UniProt Q12866)
EPHA7 (human) = EPHA7 (human) (UniProt Q15375)
HIPK3 (human) = HIPK3 (human) (UniProt Q9H422)
ROCK1 (human) = ROCK1 (human) (UniProt Q13464)
CAMKK1 (human) = CAMKK1 (human) (UniProt Q8N5S9)
Chain of CAMKK1 (human) (Q8N5S9 whole entry, looked up): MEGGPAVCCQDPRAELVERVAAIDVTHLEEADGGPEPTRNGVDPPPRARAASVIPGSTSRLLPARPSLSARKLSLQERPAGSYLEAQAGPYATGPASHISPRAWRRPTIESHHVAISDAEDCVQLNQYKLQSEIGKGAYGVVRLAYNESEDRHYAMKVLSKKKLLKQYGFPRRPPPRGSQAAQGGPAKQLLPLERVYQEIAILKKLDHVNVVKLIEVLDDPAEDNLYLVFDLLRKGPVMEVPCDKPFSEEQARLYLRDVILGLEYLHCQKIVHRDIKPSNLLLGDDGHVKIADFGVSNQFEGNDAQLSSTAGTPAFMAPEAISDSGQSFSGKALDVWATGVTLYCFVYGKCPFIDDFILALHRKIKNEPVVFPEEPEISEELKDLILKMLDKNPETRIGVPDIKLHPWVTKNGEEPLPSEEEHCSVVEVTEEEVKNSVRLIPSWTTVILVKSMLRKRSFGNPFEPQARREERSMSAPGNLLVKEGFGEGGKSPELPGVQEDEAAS

MAP3K13 (human) = MAP3K13 (human) (UniProt O43283)
NEK2 (human) = NEK2 (human) (UniProt P51955)
PDGFRA (human) = PDGFRA (human) (UniProt P16234)
CAMK2A (human) = CAMK2A (human) (UniProt Q9UQM7)
MAP4K4 (human) = MAP4K4 (human) (UniProt O95819)

SMILES | kinase still bound, per cent of control (CDK3 (human)) | kinase still bound, per cent of control (DAPK3 (human)) | kinase still bound, per cent of control (OXSR1 (human)) | kinase still bound, per cent of control (CDK17 (human)) | kinase still bound, per cent of control (CAMK2G (human)) | kinase still bound, per cent of control (SRPK1 (human)) | kinase still bound, per cent of control (RIPK4 (human)) | kinase still bound, per cent of control (NEK6 (human)) | kinase still bound, per cent of control (PRKCE (human)) | kinase still bound, per cent of control (SIK2 (human)) | kinase still bound, per cent of control (RET (human)) | kinase still bound, per cent of control (TXK (human)) | kinase still bound, per cent of control (MARK2 (human)) | kinase still bound, per cent of control (ABL2 (human)) | kinase still bound, per cent of control (FGFR3 (human)) | kinase still bound, per cent of control (PRKCH (human)) | kinase still bound, per cent of control (BMPR1A (human)) | kinase still bound, per cent of control (SLK (human)) | kinase still bound, per cent of control (PKMYT1 (human)) | kinase still bound, per cent of control (STK17A (human)) | other results
COc1cc2ncnc(Nc3cccc(Cl)c3)c2cc1OC | 100% | 35% | 71% | 79% | 77% | 67% | 43% | 100% | 75% | 67% | 7% | 63% | 74% | 34% | 99% | 100% | 55% | 2% | 78% | 19% | kinase still bound, per cent of control (TGFBR1 (human)): 88%; kinase still bound, per cent of control [1]: 11%; kinase still bound, per cent of control (SNRK (human)): 71%; kinase still bound, per cent of control [2]: 0.1%; kinase still bound, per cent of control (NEK4 (human)): 76%; kinase still bound, per cent of control (IKBKB (human)): 66%; kinase still bound, per cent of control (PIK3CD (human)): 71%; kinase still bound, per cent of control (MAP3K5 (human)): 74%; kinase still bound, per cent of control (EPHB1 (human)): 67%; kinase still bound, per cent of control (CAMK1D (human)): 83%; kinase still bound, per cent of control (MERTK (human)): 71%; kinase still bound, per cent of control (EPHA7 (human)): 46%; kinase still bound, per cent of control (HIPK3 (human)): 54%; kinase still bound, per cent of control (ROCK1 (human)): 41%; kinase still bound, per cent of control (CAMKK1 (human)): 74%; kinase still bound, per cent of control (MAP3K13 (human)): 100%; kinase still bound, per cent of control (NEK2 (human)): 92%; kinase still bound, per cent of control (PDGFRA (human)): 29%; kinase still bound, per cent of control (CAMK2A (human)): 62%
COc1cc2c(Nc3ccc(NC(=O)c4ccccc4)cc3)ncnc2cc1OCCCN1CCOCC1 | 100% | 100% | 100% | 94% | 100% | 100% | 56% | 100% | 100% | 63% | 0.15% | 99% | 81% | 82% | 67% | 100% | 37% | 0.95% | 89% | 100% | kinase still bound, per cent of control (TGFBR1 (human)): 100%; kinase still bound, per cent of control [1]: 44%; kinase still bound, per cent of control (SNRK (human)): 81%; kinase still bound, per cent of control [2]: 0.45%; kinase still bound, per cent of control (NEK4 (human)): 57%; kinase still bound, per cent of control (IKBKB (human)): 100%; kinase still bound, per cent of control (PIK3CD (human)): 100%; kinase still bound, per cent of control (MAP3K5 (human)): 100%; kinase still bound, per cent of control (EPHB1 (human)): 100%; kinase still bound, per cent of control (CAMK1D (human)): 62%; kinase still bound, per cent of control (MERTK (human)): 2.4%; kinase still bound, per cent of control (EPHA7 (human)): 84%; kinase still bound, per cent of control (HIPK3 (human)): 52%; kinase still bound, per cent of control (ROCK1 (human)): 98%; kinase still bound, per cent of control (CAMKK1 (human)): 76%; kinase still bound, per cent of control (MAP3K13 (human)): 27%; kinase still bound, per cent of control (NEK2 (human)): 51%; kinase still bound, per cent of control (PDGFRA (human)): 2%; kinase still bound, per cent of control (CAMK2A (human)): 85%
CCc1nc(-c2cccc(C)c2)c(-c2ccnc(NC(=O)c3ccccc3)c2)s1 | 100% | 83% | 100% | 99% | 100% | 100% | 90% | 100% | 87% | 62% | 66% | 75% | 100% | 47% | 86% | 88% | 14% | 41% | 64% | 81% | kinase still bound, per cent of control (SNRK (human)): 100%; kinase still bound, per cent of control (NEK4 (human)): 100%; kinase still bound, per cent of control (IKBKB (human)): 100%; kinase still bound, per cent of control (PIK3CD (human)): 100%; kinase still bound, per cent of control (MAP3K5 (human)): 100%; kinase still bound, per cent of control (EPHB1 (human)): 83%; kinase still bound, per cent of control (CAMK1D (human)): 100%; kinase still bound, per cent of control (MERTK (human)): 100%; kinase still bound, per cent of control (EPHA7 (human)): 92%; kinase still bound, per cent of control (HIPK3 (human)): 100%; kinase still bound, per cent of control (ROCK1 (human)): 97%; kinase still bound, per cent of control (CAMKK1 (human)): 100%; kinase still bound, per cent of control (MAP3K13 (human)): 100%; kinase still bound, per cent of control (NEK2 (human)): 95%; kinase still bound, per cent of control (PDGFRA (human)): 84%; kinase still bound, per cent of control (CAMK2A (human)): 89%
CCOc1cc(N2CCC(O)CC2)ccc1Nc1ncc2c(n1)N(C)c1ccccc1C(=O)N2C | 100% | 100% | 100% | 100% | 100% | 100% | 100% | 100% | 100% | 100% | 100% | 100% | 100% | 100% | 100% | 100% | 100% | 100% | 100% | 100% | kinase still bound, per cent of control (TGFBR1 (human)): 100%; kinase still bound, per cent of control [1]: 100%; kinase still bound, per cent of control (MAP4K4 (human)): 100%; kinase still bound, per cent of control [2]: 100%; kinase still bound, per cent of control (IKBKB (human)): 100%; kinase still bound, per cent of control (PIK3CD (human)): 100%; kinase still bound, per cent of control (MAP3K5 (human)): 100%; kinase still bound, per cent of control (EPHB1 (human)): 100%; kinase still bound, per cent of control (CAMK1D (human)): 100%; kinase still bound, per cent of control (MERTK (human)): 100%; kinase still bound, per cent of control (EPHA7 (human)): 100%; kinase still bound, per cent of control (HIPK3 (human)): 100%; kinase still bound, per cent of control (ROCK1 (human)): 100%; kinase still bound, per cent of control (CAMKK1 (human)): 100%; kinase still bound, per cent of control (MAP3K13 (human)): 100%; kinase still bound, per cent of control (NEK2 (human)): 100%; kinase still bound, per cent of control (PDGFRA (human)): 100%; kinase still bound, per cent of control (CAMK2A (human)): 100%
